Laboratory results published in US12433952B2, “Antibody-drug conjugates targeting folate receptor alpha and methods of use” (ZYMEWORKS BC INC., priority 2022, dated 2025).

What was measured:
Format in all cases: cell-based
Calu-3 (lung cancer) = assay: In vitro cytotoxicity of camptothecin analogues (CellTiter-Glo); conditions: Homo sapiens, Calu-3, 96 h; 4 d incubation; read-out: pIC50 Calu-3 (converted)
Outline: (§1)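 Cells in log-phase growth are detached and resuspended at 20,000 cells/mL, or 10,000 cells/mL for ZR-75-1. They are then added to serial analogue dilutions prepared in RPMI 1640 plus 10% FBS and incubated at 37° C for 4 d (5 d for ZR-75-1) before CellTiter-Glo readout and IC50 fitting.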

[1] = test system: MDA-MB-468 (breast cancer); assay: as above; conditions: Homo sapiens, MDA-MB-468, 96 h; 4 d incubation; read-out: pIC50 MDA-MB-468 (converted)
Outline: as §1

SK-BR-3 (breast cancer) = assay: as above; conditions: Homo sapiens, SK-BR-3, 96 h; 4 d incubation; read-out: pIC50 SKBR-3 (converted)
Outline: as §1

SKOV-3 (ovarian cancer) = assay: as above; conditions: Homo sapiens, SK-OV-3, 96 h; 4 d incubation; read-out: pIC50 SKOV-3 (converted)
Outline: as §1

ZR-75-1 (breast cancer) = assay: as above; conditions: Homo sapiens, ZR-75-1, 120 h; 5 d incubation; read-out: pIC50 ZR-75 (converted)
Outline: as §1

[2] = test system: FRα-negative MDA-MB-468 cells co-cultured with FRα-positive JEG-3; assay: Bystander activity of ADCs (mono-culture vs co-culture, flow cytometry); conditions: 4 days; for bystander activity / Average MDA-MB-468 Viability (%) Mono-culture / % Bystander Activity: 2 nM ADC; for bystander activity: viability of MDA-MB-468 in co-culture vs mono-culture; for Average MDA-MB-468 Viability (%) Co-culture: MDA-MB-468 co-cultured with JEG-3, 2 nM ADC; for Average MDA-MB-468 Viability (%) Co-culture / Average MDA-MB-468 Viability (%) Mono-culture: relative to untreated blank; for Average MDA-MB-468 Viability (%) Mono-culture: MDA-MB-468 mono-culture; for % Bystander Activity: mono-culture viability compared with co-culture viability
Protocol: The ability of the humanized variant v30384 conjugated to various drug-linkers to exert a bystander killing effect on cancer cells was assessed according to the method described below. Bystander killing most commonly occurs after target-specific uptake of an ADC into an antigen-positive cell. Trafficking and degradation of the ADC results in release of active catabolite free drug, which then crosses the cell membrane of nearby cells to elicit cell death.
FRα-positive JEG-3 and FRα-negative MDA-MB-468 cells were seeded either as mono-cultures or co-cultures in a 48-well plate at 20,000 cells and 10,000 cells, respectively, in 100 μL assay media (Minimum Essential Media supplemented with 10% Fetal Bovine Serum (both from Thermo Fisher Scientific, Waltham, MA)). ADCs were diluted to 4 nM in assay media and 100 μL was added to the cell-containing plates (2 nM final ADC concentration). Cells were incubated with ADCs for 4 days under standard culturing conditions (37° C./5% C02). Following incubation, cells were dissociated, washed, and stained using a viability dye, YO—PRO®-1 (ThermoFisher Scientific, Waltham, MA), and an anti-FRα antibody, mirvetuximab (v17716), conjugated to Alexa Fluor®647, for 20 minutes at 4° C. After incubation, cells were washed in FACS buffer (phosphate buffered saline pH 7.4 (ThermoFisher Scientific, Waltham, MA) supplemented with 2% FBS), resuspended in 70 μL FACS buffer per well, and 35 μL per well were analyzed on a BD LSRFortessa™ Cell Analyzer (BD Biosciences, Franklin Lake, NJ). Dead cells were excluded by gating on YO—PRO®-1 staining. The number of JEG-3 and MDA-MB-468 cells were determined by the number of events in the Alexa Fluor®647 positive (FRα-positive) and Alexa Fluor®647 negative (FRα-negative) gates, respectively. Percent viability was calculated as the number of cells in treatment condition divided by the number of cells in the no-treatment condition.

Row | Compound | bystander activity [2] | Average MDA-MB-468 Viability (%) Co-culture [2] [%] | Average MDA-MB-468 Viability (%) Mono-culture [2] [%] | % Bystander Activity [2] [%] | also measured
1 | CC[C@@]1(O)C(=O)OCc2c1cc1n(c2=O)Cc2c-1nc1cc(F)c(N)cc1c2CNC(=O)NCCO [Compound 151, (S)-1-((9-amino-4-ethyl-8-fluoro-4-hydroxy-3,14-dioxo-3,4,12,14-tetrahydro-1H-pyrano[3′,4′:6,7]indolizino[1,2-b]quinolin-11-yl)methyl)-3-(2-hydroxyethyl)urea] |  |  |  |  | IC50 (Calu-3 (lung cancer)): 0.0115 µM; IC50 [1]: 0.0115 µM; IC50 (SK-BR-3 (breast cancer)): 0.00269 µM; IC50 (SKOV-3 (ovarian cancer)): 0.0457 µM; IC50 (ZR-75-1 (breast cancer)): 0.00589 µM
2 | palivizumab MC-GGFG-AM-DXd1: "ADCs comprising palivizumab (v22277) conjugated to MC-GGFG-AM-DXd1 and MCvcPABC-MMAE were included as negative controls" | negative bystander activity |  |  |  | 
3 | palivizumab MCvcPABC-MMAE: "ADCs comprising palivizumab (v22277) conjugated to MC-GGFG-AM-DXd1 and MCvcPABC-MMAE were included as negative controls" | negative bystander activity |  |  |  | 
4 | v22277-MC-GGFG-AM-DXd1: "negative controls palivizumab (anti-RSV) (v22277) conjugated to MC-GGFG-AM-DXd1 (DAR 8) and MCvcPABC-MMAE (DAR 4)" |  | 101.8 | 91.6 | −10.2 | 
5 | v22277-MCvcPABC-MMAE: "negative controls palivizumab (anti-RSV) (v22277) conjugated to MC-GGFG-AM-DXd1 (DAR 8) and MCvcPABC-MMAE (DAR 4)" |  | 94.2 | 81.3 | −12.9 | 
